Experimental findings from US20110201818A1, “POLO-LIKE KINASE INHIBITORS” (TAKEDA PHARMACEUTICAL COMPANY LIMITED, priority 2007, published 2011) are described below.

For the first assay, the target named is T1, human PLK1 (Homo sapiens, UniProt P53350).
T1 construct: FLAG (DYKDDDDK) (N); made in house; host or cells: Sf21 insect cells, recombinant baculovirus (pFASTBAC1, Bac-to-Bac)
T1 sequence (P53350 with tags, fused parts or gaps): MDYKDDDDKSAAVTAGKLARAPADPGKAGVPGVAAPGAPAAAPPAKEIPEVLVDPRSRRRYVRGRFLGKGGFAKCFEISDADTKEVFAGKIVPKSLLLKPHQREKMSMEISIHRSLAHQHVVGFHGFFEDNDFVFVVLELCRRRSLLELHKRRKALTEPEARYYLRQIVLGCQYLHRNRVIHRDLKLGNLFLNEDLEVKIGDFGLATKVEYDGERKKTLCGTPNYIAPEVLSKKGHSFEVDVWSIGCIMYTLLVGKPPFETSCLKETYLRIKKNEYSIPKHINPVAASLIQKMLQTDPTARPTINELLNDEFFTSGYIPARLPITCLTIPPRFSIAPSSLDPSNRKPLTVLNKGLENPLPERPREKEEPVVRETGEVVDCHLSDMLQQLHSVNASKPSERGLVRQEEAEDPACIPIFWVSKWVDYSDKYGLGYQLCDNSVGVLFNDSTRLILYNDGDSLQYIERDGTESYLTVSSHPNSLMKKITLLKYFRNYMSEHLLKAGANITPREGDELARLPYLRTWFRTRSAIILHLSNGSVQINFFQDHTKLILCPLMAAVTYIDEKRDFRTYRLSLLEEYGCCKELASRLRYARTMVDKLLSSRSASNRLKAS
In words: PLK1 in vitro enzymatic activity assay (phosphorylation of alpha casein by recombinant PLK1).
Details: not given
The assay is classed as biochemical. On the procedure: PCR was performed using the vector as a template. […] After XbaI and XhoI digestion of the PCR product, the fragment was subcloned into pFASTBAC1 (Invitrogen, USA). Recombinant baculoviruses were prepared according to the procedure of the Bac-to-Bac baculovirus expression system (Invitrogen, USA). Sf21 cells were purchased from Invitrogen and grown in Sf-900 II SFM medium containing 10% fetal bovine serum, 50 μg/mL gentamicin and 0.1% pluronic F-68 (Invitrogen, USA) at 28° C. For preparation of PLK1 enzyme, Sf21 cells were infected with recombinant baculoviruses and cultured at 28° C. for 72 h.
The inhibition of PLK1 by the compounds was determined with the following assay that measures the phosphorylation of alpha casein by recombinant PLK1. Kinase reactions were performed at room temperature for 40 min in the kinase reaction buffer (25 mmol/L HEPES, pH 7.5, 10 mmol/L magnesium acetate, 1 mmol/L dithiothreitol) containing 50 ng PLK1 enzyme, 0.1 μCi [γ-^32P]ATP, 500 nmol/L ATP and 3 μg alpha casein (MP Biomedicals Inc., USA) in a final volume of 50 μL. The incubation was terminated by the addition of 10% trichloroacetic acid (Wako, Japan). Phosphorylated proteins were filtrated in GF/C filter plates (Packard, USA) with a Cell harvester (Packard, USA) and washed out free [γ-^32P]-ATP with 250 mmol/L phosphoric acid. Then, the plates were air dried for 60 min at 45° C., followed by the addition of 20 μL of MicroScint-O (Packard, USA). The radioactivity was counted by a Top-count scintillation counter (Packard, USA).
`CCN1CCN(NC(=O)c2ccc(Nc3ncc4c(n3)N(C3CCCCC3)CC(F)(F)C(=O)N4C)c(OC)c2)CC1` [Compound 78, 4-(9-cyclohexyl-7,7-difluoro-5-methyl-6-oxo-6,7,8,9-tetrahydro-5H-pyrimido[4,5-b][1,4]diazepin-2-ylamino)-N-(4-ethylpiperazin-1-yl)-3-methoxybenzamide]: the IC50 is at most 2 nM.

Staying with this assay, now noted: recombinant FLAG-tagged PLK1, alpha casein substrate, 500 nmol/L ATP, 40 min at room temperature; read-out: pIC50 (PLK1) (converted).
In the case of `COc1cc(C(=O)NC[C@H](C)O)ccc1Nc1ncc2c(n1)N(C1CCCCC1)CC(F)(F)C(=O)N2C` [Compound 63, (S)-4-(9-cyclohexyl-7,7-difluoro-5-methyl-6-oxo-6,7,8,9-tetrahydro-5H-pyrimido[4,5-b][1,4]diazepin-2-ylamino)-N-(2-hydroxypropyl)-3-methoxybenzamide], the IC50 was at most 2 nM.

In the case of `COc1cc(C(=O)NN2CCCCC2)ccc1Nc1ncc2c(n1)N(C1CCCCC1)CC(F)(F)C(=O)N2C` [Compound 64, 4-(9-cyclohexyl-7,7-difluoro-5-methyl-6-oxo-6,7,8,9-tetrahydro-5H-pyrimido[4,5-b][1,4]diazepin-2-ylamino)-3-methoxy-N-(piperidin-1-yl)benzamide], the IC50 was at most 2 nM.

In the case of `COc1cc(C(=O)NN2CCOCC2)ccc1Nc1ncc2c(n1)N(C1CCCCC1)CC(F)(F)C(=O)N2C` [Compound 65, 4-(9-cyclohexyl-7,7-difluoro-5-methyl-6-oxo-6,7,8,9-tetrahydro-5H-pyrimido[4,5-b][1,4]diazepin-2-ylamino)-3-methoxy-N-morpholinobenzamide], the IC50 is at most 2 nM.

`COc1cc(C(=O)NC2CCOCC2)ccc1Nc1ncc2c(n1)N(C1CCCCC1)CC(F)(F)C(=O)N2C` [Compound 66, 4-(9-cyclohexyl-7,7-difluoro-5-methyl-6-oxo-6,7,8,9-tetrahydro-5H-pyrimido[4,5-b][1,4]diazepin-2-ylamino)-3-methoxy-N-(tetrahydro-2H-pyran-4-yl)benzamide]: the IC50 is at most 2 nM.

Regarding `COc1cc(C(=O)NN2CCCC2)ccc1Nc1ncc2c(n1)N(C1CCCCC1)CC(F)(F)C(=O)N2C` [Compound 67, 4-(9-cyclohexyl-7,7-difluoro-5-methyl-6-oxo-6,7,8,9-tetrahydro-5H-pyrimido[4,5-b][1,4]diazepin-2-ylamino)-3-methoxy-N-(pyrrolidin-1-yl)benzamide], the IC50 was at most 2 nM.

As to `COc1cc(C(=O)NC2CN(C(C)=O)C2)ccc1Nc1ncc2c(n1)N(C1CCCCC1)CC(F)(F)C(=O)N2C` [Compound 69, N-(1-acetylazetidin-3-yl)-4-(9-cyclohexyl-7,7-difluoro-5-methyl-6-oxo-6,7,8,9-tetrahydro-5H-pyrimido[4,5-b][1,4]diazepin-2-ylamino)-3-methoxybenzamide], the IC50 was at most 2 nM.

Consider `COc1cc(C(=O)NC2CCNCC2)ccc1Nc1ncc2c(n1)N(C1CCCCC1)CC(F)(F)C(=O)N2C` [Compound 70, 4-(9-cyclohexyl-7,7-difluoro-5-methyl-6-oxo-6,7,8,9-tetrahydro-5H-pyrimido[4,5-b][1,4]diazepin-2-ylamino)-3-methoxy-N-(piperidin-4-yl)benzamide], for which the IC50 was at most 2 nM.

`COc1cc(C(=O)N[C@H]2CCCN(C)C2)ccc1Nc1ncc2c(n1)N(C1CCCCC1)CC(F)(F)C(=O)N2C` [Compound 74, (S)-4-(9-cyclohexyl-7,7-difluoro-5-methyl-6-oxo-6,7,8,9-tetrahydro-5H-pyrimido[4,5-b][1,4]diazepin-2-ylamino)-3-methoxy-N-(1-methylpiperidin-3-yl)benzamide]: the IC50 was at most 2 nM.

With `COc1cc(C(=O)N[C@@H]2CCCN(C)C2)ccc1Nc1ncc2c(n1)N(C1CCCCC1)CC(F)(F)C(=O)N2C` [Compound 75, (R)-4-(9-cyclohexyl-7,7-difluoro-5-methyl-6-oxo-6,7,8,9-tetrahydro-5H-pyrimido[4,5-b][1,4]diazepin-2-ylamino)-3-methoxy-N-(1-methylpiperidin-3-yl)benzamide], the IC50 was at most 2 nM.

As for `COc1cc(C(=O)NC2CC2)ccc1Nc1ncc2c(n1)N(C1CCCCC1)CC(F)(F)C(=O)N2C` [Compound 76, 4-(9-cyclohexyl-7,7-difluoro-5-methyl-6-oxo-6,7,8,9-tetrahydro-5H-pyrimido[4,5-b][1,4]diazepin-2-ylamino)-N-cyclopropyl-3-methoxybenzamide], the IC50 was at most 2 nM.

For `COc1cc(C(=O)NN2CCNCC2)ccc1Nc1ncc2c(n1)N(C1CCCCC1)CC(F)(F)C(=O)N2C` [Compound 77, 4-(9-cyclohexyl-7,7-difluoro-5-methyl-6-oxo-6,7,8,9-tetrahydro-5H-pyrimido[4,5-b][1,4]diazepin-2-ylamino)-3-methoxy-N-(piperazin-1-yl)benzamide], the IC50 was at most 2 nM.

On to `COc1cc(C(=O)NN2CCN(C(C)C)CC2)ccc1Nc1ncc2c(n1)N(C1CCCCC1)CC(F)(F)C(=O)N2C` [Compound 79, 4-(9-cyclohexyl-7,7-difluoro-5-methyl-6-oxo-6,7,8,9-tetrahydro-5H-pyrimido[4,5-b][1,4]diazepin-2-ylamino)-N-(4-isopropylpiperazin-1-yl)-3-methoxybenzamide], for which the IC50 is at most 2 nM.

In the case of `COc1cc(C(=O)NN2CCN(CC3CC3)CC2)ccc1Nc1ncc2c(n1)N(C1CCCCC1)CC(F)(F)C(=O)N2C` [Compound 80, 4-(9-cyclohexyl-7,7-difluoro-5-methyl-6-oxo-6,7,8,9-tetrahydro-5H-pyrimido[4,5-b][1,4]diazepin-2-ylamino)-N-(4-(cyclopropylmethyl)piperazin-1-yl)-3-methoxybenzamidemethoxybenzamide], the IC50 is at most 2 nM.

Regarding `COc1cc(C(=O)NN2CCN(C(=O)CN(C)C)CC2)ccc1Nc1ncc2c(n1)N(C1CCCCC1)CC(F)(F)C(=O)N2C` [Compound 81, 4-(9-cyclohexyl-7,7-difluoro-5-methyl-6-oxo-6,7,8,9-tetrahydro-5H-pyrimido[4,5-b][1,4]diazepin-2-ylamino)-N-(4-(2-(dimethylamino)acetyl)piperazin-1-yl)-3-methoxybenzamide], the IC50 is at most 2 nM.

Regarding `COc1cc(C(=O)NC2CCN(C)CC2)ccc1Nc1ncc2c(n1)N(C1CC[C@@H](C)C1)CC(F)(F)C(=O)N2C` (stereo partly drawn) [Compound 83, 4-(7,7-difluoro-5-methyl-9-((3R)-3-methylcyclopentyl)-6-oxo-6,7,8,9-tetrahydro-5H-pyrimido[4,5-b][1,4]diazepin-2-ylamino)-3-methoxy-N-(1-methylpiperidin-4-yl)benzamide], the IC50 is at most 2 nM.

With `COc1cc(C(=O)NC2CCN(C)CC2)ccc1Nc1ncc2c(n1)N(C1CCCC1)CC(F)C(=O)N2C` (stereo not shown) [Compound 84, 4-(9-cyclopentyl-7-fluoro-5-methyl-6-oxo-6,7,8,9-tetrahydro-5H-pyrimido[4,5-b][1,4]diazepin-2-ylamino)-3-methoxy-N-(1-methylpiperidin-4-yl)benzamide], the IC50 was at most 2 nM.

Regarding `COc1cc(C(=O)NC2CCN(C)CC2)ccc1Nc1ncc2c(n1)N(C1CCCC1)CC(F)(C(F)(F)F)C(=O)N2C` (stereo not shown) [Compound 85, 4-(9-cyclopentyl-7-fluoro-5-methyl-6-oxo-7-(trifluoromethyl)-6,7,8,9-tetrahydro-5H-pyrimido[4,5-b][1,4]diazepin-2-ylamino)-3-methoxy-N-(1-methylpiperidin-4-yl)benzamide], the IC50 is over 2 nM.

On to `COc1cc(C(=O)NC2CCN(C)CC2)ccc1Nc1ncc2c(n1)N(C1CCCC1)CC(C)(F)C(=O)N2C` (stereo not shown) [Compound 87, 4-(9-cyclopentyl-7-fluoro-5,7-dimethyl-6-oxo-6,7,8,9-tetrahydro-5H-pyrimido[4,5-b][1,4]diazepin-2-ylamino)-3-methoxy-N-(1-methylpiperidin-4-yl)benzamide], for which the IC50 was at most 2 nM.

In the case of `COc1cc(C(=O)NC2CN(C)C2)ccc1Nc1ncc2c(n1)N(C1CCCC1)CC(C)(F)C(=O)N2C` (stereo not shown) [Compound 88, 4-(9-Cyclopentyl-7-fluoro-5,7-dimethyl-6-oxo-6,7,8,9-tetrahydro-5H-pyrimido[4,5-b][1,4]diazepin-2-ylamino)-3-methoxy-N-(1-methylazetidin-3-yl)benzamide], the IC50 was at most 2 nM.

For `COc1cc(C(=O)NC2CCN(C)CC2)ccc1Nc1ncc2c(n1)N(C1CCCCC1)CC(C)(F)C(=O)N2C` (stereo not shown) [Compound 89, 4-(9-Cyclohexyl-7-fluoro-5,7-dimethyl-6-oxo-6,7,8,9-tetrahydro-5H-pyrimido[4,5-b][1,4]diazepin-2-ylamino)-3-methoxy-N-(1-methylpiperidin-4-yl)benzamide], the IC50 is at most 2 nM.

Turning to `COc1cc(C(=O)NC2CN(C)C2)ccc1Nc1ncc2c(n1)N(C1CCCCC1)CC(C)(F)C(=O)N2C` (stereo not shown) [Compound 90, 4-(9-Cyclohexyl-7-fluoro-5,7-dimethyl-6-oxo-6,7,8,9-tetrahydro-5H-pyrimido[4,5-b][1,4]diazepin-2-ylamino)-3-methoxy-N-(1-methylazetidin-3-yl)benzamide], the IC50 is at most 2 nM.
